Reference: article PMC11121200 (Acta Pharmaceutica Sinica. B, 2024)

Assays:
CtMaT1 = experiment: HPLC initial-rate kinetics, nonlinear regression; type: biochemical, Cistanche tubulosa; conditions: 2 mmol/L malonyl-CoA as co-substrate, 1 mmol/L DTT, 100 mmol/L potassium phosphate pH 6.0, 30 °C
MatB [1] = target: T1, MatB (Arabidopsis thaliana, UniProt Q8H151); experiment: HPLC detection of malonyl-CoA formed; type: biochemical; conditions: 1.5 mmol/L CoA, 3 mmol/L ATP, 5 mmol/L MgCl2, 1 mmol/L DTT, potassium phosphate pH 6.0, 30 °C, 12 h
T1 sequence (Q8H151 1-608): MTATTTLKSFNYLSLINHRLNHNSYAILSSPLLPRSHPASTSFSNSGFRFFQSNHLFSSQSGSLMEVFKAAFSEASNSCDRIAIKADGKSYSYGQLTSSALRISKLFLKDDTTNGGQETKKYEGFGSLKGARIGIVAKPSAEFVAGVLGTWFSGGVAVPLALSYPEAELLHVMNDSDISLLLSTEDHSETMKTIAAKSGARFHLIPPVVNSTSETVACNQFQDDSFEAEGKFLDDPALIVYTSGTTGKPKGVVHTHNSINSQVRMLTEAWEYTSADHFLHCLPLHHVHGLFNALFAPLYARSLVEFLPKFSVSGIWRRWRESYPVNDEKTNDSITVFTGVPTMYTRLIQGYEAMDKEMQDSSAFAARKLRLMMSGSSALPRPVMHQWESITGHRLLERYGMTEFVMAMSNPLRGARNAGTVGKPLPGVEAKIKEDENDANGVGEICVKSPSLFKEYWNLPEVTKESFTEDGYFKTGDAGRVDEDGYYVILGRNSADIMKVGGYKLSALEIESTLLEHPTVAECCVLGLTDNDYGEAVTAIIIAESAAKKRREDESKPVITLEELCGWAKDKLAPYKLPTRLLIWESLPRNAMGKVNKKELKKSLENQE

MatB [2] = target: T1, MatB; conditions: 1.5 mmol/L CoA, 3 mmol/L ATP, 5 mmol/L MgCl2, 1 mmol/L DTT, potassium phosphate pH 6.0, 30 °C, 12 h

Row | Structure (SMILES) | Km (CtMaT1) | other results
1 | OC[C@H]1O[C@@H](Oc2cc3c(O)cc(O)cc3[o+]c2-c2ccc(O)c(O)c2)[C@H](O)[C@@H](O)[C@@H]1O [compound 1, cyanidin 3-glucoside] | 685 ± 25.3 µM | –
2 | OC[C@H]1O[C@@H](OCCc2ccc(O)cc2)[C@H](O)[C@@H](O)[C@@H]1O [compound 2, salidroside] | 757 ± 58.2 µM | –
3 | O=C(O)CC(=O)O [malonic acid] | – | HPLC detection of malonyl-CoA formed (MatB [1]): made directly from malonic acid in the presence of CoA, ATP, and MatB proteins
4 | CC(C(=O)O)C(=O)O [methylmalonic acid] | – | HPLC detection of methylmalonyl-CoA formed (MatB [2]): MatB could also conduct the synthesis of methyl-MLC
